Values quoted from earlier work as cited in patent US20220241230A1, “DICLOFENAC SACHET COMPOSITION” (Patrin Pharma, Inc., priority 2021, published 2022).

Legend:
[1] = commercially available sugar coated tablets
[2] = 100 mg and 50 mg tablets, versus placebo
[3] = 50 mg and 100 mg sugar coated tablets

SMILES | terminal half-life [1] | incidence of headache recurrence within 48 hours of treatment (50 mg and 100 mg immediate release tablets, versus placebo, statistical significance not reported) | effectiveness against phonophobia two hours after treatment [3] | effectiveness against photophobia eight hours after treatment [3] | effectiveness against photophobia two hours after treatment [3] | relief of migraine pain within two hours of treatment [3] | effectiveness against photophobia eight hours after treatment, 50 mg dose (50 mg sugar coated tablets) | effectiveness against migraine pain within two hours of treatment [2] | effectiveness against phonophobia and photophobia within two hours [2]
O=C(O)Cc1ccccc1Nc1c(Cl)cccc1Cl [diclofenac potassium, Diclofenac potassium] | about 1.9 hours | higher incidence of headache recurrence than patients treated with placebo | only the 100 mg dose was effective | both doses were effective | neither dose was effective | ability of both doses to relieve migraine pain | effective | – | –
O=C(O)Cc1ccccc1Nc1c(Cl)cccc1Cl [diclofenac, [(2,6-dichloro-anilino)-2-phenyl]-2-acetic acid] | – | – | – | – | – | – | – | both strengths were effective | only the 100 mg strength was effective
